From ChEMBL document CHEMBL3046424, “Growth inhibitory effects on fall armyworm Spodoptera frugiperda of some limonoids isolated from Cedrela spp. (Meliaceae)” (2000)
≈ marks a conversion by molar mass, not a printed value.

What was measured:
Assay type in all cases: functional
[1] = system: Spodoptera frugiperda; test: Insecticidal activity against Spodoptera frugiperda (fall armyworm) assessed as mean length at 5 ug/ml in artificial diet measured after 7 days (reference value: 0.95 +/- 0.2 cm)
[2] = system: Spodoptera frugiperda; test: Insecticidal activity against Spodoptera frugiperda (fall armyworm) assessed as mortality at 25 ug/ml in artificial diet measured after 7 days (reference value: 8.33%); settings: 168 h
[3] = system: Spodoptera frugiperda; test: Insecticidal activity against Spodoptera frugiperda (fall armyworm) assessed as mean time to pupation at 25 ug/ml in artificial diet (reference value: 22 days)
[4] = system: Spodoptera frugiperda; test: Insecticidal activity against Spodoptera frugiperda (fall armyworm) assessed as mean pupation at 52 ug/ml in artificial diet (reference value: 87.5 %)
[5] = system: Spodoptera frugiperda; test: Insecticidal activity against Spodoptera frugiperda (fall armyworm) assessed as mean length at 5 ug/ml in artificial diet measured after 7 days (reference value: 28 +/- 4.1 mg)
[6] = system: Spodoptera frugiperda; test: Insecticidal activity against Spodoptera frugiperda (fall armyworm) assessed as mean weight gain at 5 ug/ml in artificial diet measured after 7 days (reference value: 75.5 +/- 8.24 mg)
[7] = system: Spodoptera frugiperda; test: Insecticidal activity against Spodoptera frugiperda (fall armyworm) assessed as mean weight gain at 52 ug/ml in artificial diet measured after 7 days (reference value: 469.5 +/- 6.59 mg)
[8] = system: Spodoptera frugiperda; test: Insecticidal activity against Spodoptera frugiperda (fall armyworm) assessed as mean length at 10 ug/ml in artificial diet measured after 7 days (reference value: 28 +/- 4.1 mg)
[9] = system: Spodoptera frugiperda; test: Insecticidal activity against Spodoptera frugiperda (fall armyworm) assessed as mean weight gain at 39 ug/ml in artificial diet measured after 7 days (reference value: 75.5 +/- 8.24 mg)
[10] = system: Spodoptera frugiperda; test: Insecticidal activity against Spodoptera frugiperda (fall armyworm) assessed as mean time to pupation at 52 ug/ml in artificial diet (reference value: 22 days)
[11] = system: Spodoptera frugiperda; test: Insecticidal activity against Spodoptera frugiperda (fall armyworm) assessed as mean pupation at 25 ug/ml in artificial diet (reference value: 87.5 %)
[12] = system: Spodoptera frugiperda; test: Insecticidal activity against Spodoptera frugiperda (fall armyworm) assessed as mean emergence days at 52 ug/ml in artificial diet (reference value: 33 days)
[13] = system: Spodoptera frugiperda; test: Insecticidal activity against Spodoptera frugiperda (fall armyworm) assessed as mean pupation at 5 ug/ml in artificial diet (reference value: 87.5 %)
[14] = system: Spodoptera frugiperda; test: Insecticidal activity against Spodoptera frugiperda (fall armyworm) assessed as mean weight gain at 5 ug/ml in artificial diet measured after 7 days (reference value: 469.5 +/- 6.59 mg)
[15] = system: Spodoptera frugiperda; test: Insecticidal activity against Spodoptera frugiperda (fall armyworm) assessed as mean weight gain at 10 ug/ml in artificial diet measured after 7 days (reference value: 75.5 +/- 8.24 mg)
[16] = system: Spodoptera frugiperda; test: Insecticidal activity against Spodoptera frugiperda (fall armyworm) assessed as mean emergence at 25 ug/ml in artificial diet (reference value: 83.3 %)
[17] = system: Spodoptera frugiperda; test: Insecticidal activity against Spodoptera frugiperda (fall armyworm) assessed as mean weight gain at 52 ug/ml in artificial diet measured after 7 days (reference value: 75.5 +/- 8.24 mg)
[18] = system: Spodoptera frugiperda; test: Insecticidal activity against Spodoptera frugiperda (fall armyworm) assessed as mean weight gain at 25 ug/ml in artificial diet measured after 7 days (reference value: 75.5 +/- 8.24 mg)
[19] = system: Spodoptera frugiperda; test: Insecticidal activity against Spodoptera frugiperda (fall armyworm) assessed as mean emergence at 5 ug/ml in artificial diet (reference value: 83.3 %)
[20] = system: Spodoptera frugiperda; test: Insecticidal activity against Spodoptera frugiperda (fall armyworm) assessed as mean length at 25 ug/ml in artificial diet measured after 7 days (reference value: 28 +/- 4.1 mg)
[21] = system: Spodoptera frugiperda; test: Insecticidal activity against Spodoptera frugiperda (fall armyworm) assessed as mean emergence days at 5 ug/ml in artificial diet (reference value: 33 days)
[22] = system: Spodoptera frugiperda; test: Insecticidal activity against Spodoptera frugiperda (fall armyworm) assessed as mean weight of pupae at 25 ug/ml in artificial diet (reference value: 281.5 +/- 10.3 mg)
[23] = system: Spodoptera frugiperda; test: Insecticidal activity against Spodoptera frugiperda (fall armyworm) assessed as mean weight gain at 39 ug/ml in artificial diet measured after 7 days (reference value: 469.5 +/- 6.59 mg)
[24] = system: Spodoptera frugiperda; test: Insecticidal activity against Spodoptera frugiperda (fall armyworm) assessed as mortality measured after 7 days; settings: 168 h
[25] = system: Spodoptera frugiperda; test: Insecticidal activity against Spodoptera frugiperda (fall armyworm) assessed as mean length at 52 ug/ml in artificial diet measured after 7 days (reference value: 28 +/- 4.1 mg)
[26] = system: Spodoptera frugiperda; test: Insecticidal activity against Spodoptera frugiperda (fall armyworm) assessed as mean weight of pupae at 5 ug/ml in artificial diet (reference value: 281.5 +/- 10.3 mg)
[27] = system: Spodoptera frugiperda; test: Insecticidal activity against Spodoptera frugiperda (fall armyworm) assessed as mortality at 39 ug/ml in artificial diet measured after 7 days (reference value: 8.33%); settings: 168 h
[28] = system: Spodoptera frugiperda; test: Insecticidal activity against Spodoptera frugiperda (fall armyworm) assessed as mean weight gain at 10 ug/ml in artificial diet measured after 7 days (reference value: 469.5 +/- 6.59 mg)
[29] = system: Spodoptera frugiperda; test: Insecticidal activity against Spodoptera frugiperda (fall armyworm) assessed as mean weight gain at 25 ug/ml in artificial diet measured after 7 days (reference value: 469.5 +/- 6.59 mg)
[30] = system: Spodoptera frugiperda; test: Insecticidal activity against Spodoptera frugiperda (fall armyworm) assessed as mortality at 5 ug/ml in artificial diet measured after 7 days (reference value: 8.33%); settings: 168 h
[31] = system: Spodoptera frugiperda; test: Insecticidal activity against Spodoptera frugiperda (fall armyworm) assessed as mean weight gain at 15 ug/ml in artificial diet measured after 7 days (reference value: 75.5 +/- 8.24 mg)
[32] = system: Spodoptera frugiperda; test: Insecticidal activity against Spodoptera frugiperda (fall armyworm) assessed as mean length at 39 ug/ml in artificial diet measured after 7 days (reference value: 28 +/- 4.1 mg)
[33] = system: Spodoptera frugiperda; test: Insecticidal activity against Spodoptera frugiperda (fall armyworm) assessed as mean length at 15 ug/ml in artificial diet measured after 7 days (reference value: […])
[34] = system: Spodoptera frugiperda; test: Insecticidal activity against Spodoptera frugiperda (fall armyworm) assessed as mean time to pupation at 5 ug/ml in artificial diet (reference value: 22 days)
[35] = system: Spodoptera frugiperda; test: Insecticidal activity against Spodoptera frugiperda (fall armyworm) assessed as mortality at 10 ug/ml in artificial diet measured after 7 days (reference value: 8.33%); settings: 168 h
[36] = system: Spodoptera frugiperda; test: Insecticidal activity against Spodoptera frugiperda (fall armyworm) assessed as mean length at 25 ug/ml in artificial diet measured after 7 days (reference value: 0.95 +/- 0.2 cm)
[37] = system: Spodoptera frugiperda; test: Insecticidal activity against Spodoptera frugiperda (fall armyworm) assessed as mean weight of pupae at 52 ug/ml in artificial diet (reference value: 281.5 +/- 10.3 mg)
[38] = system: Spodoptera frugiperda; test: Insecticidal activity against Spodoptera frugiperda (fall armyworm) assessed as mean emergence days at 25 ug/ml in artificial diet (reference value: 33 days)
[39] = system: Spodoptera frugiperda; test: Insecticidal activity against Spodoptera frugiperda (fall armyworm) assessed as mean length at 52 ug/ml in artificial diet measured after 7 days (reference value: 0.95 +/- 0.2 cm)
[40] = system: Spodoptera frugiperda; test: Insecticidal activity against Spodoptera frugiperda (fall armyworm) assessed as mean length at 39 ug/ml in artificial diet measured after 7 days (reference value: 0.95 +/- 0.2 cm)
[41] = system: Spodoptera frugiperda; test: Insecticidal activity against Spodoptera frugiperda (fall armyworm) assessed as mean emergence at 52 ug/ml in artificial diet (reference value: 83.3 %)
[42] = system: Spodoptera frugiperda; test: Insecticidal activity against Spodoptera frugiperda (fall armyworm) assessed as mean length at 15 ug/ml in artificial diet measured after 7 days (reference value: 0.95 +/- 0.2 cm)
[43] = system: Spodoptera frugiperda; test: Insecticidal activity against Spodoptera frugiperda (fall armyworm) assessed as mean length at 10 ug/ml in artificial diet measured after 7 days (reference value: 0.95 +/- 0.2 cm)
[44] = system: Spodoptera frugiperda; test: Insecticidal activity against Spodoptera frugiperda (fall armyworm) assessed as mortality at 52 ug/ml in artificial diet measured after 7 days (reference value: 8.33%); settings: 168 h
[45] = system: Spodoptera frugiperda; test: Insecticidal activity against Spodoptera frugiperda (fall armyworm) assessed as mean weight gain at 15 ug/ml in artificial diet measured after 7 days (reference value: 469.5 +/- 6.59 mg)
[46] = system: Spodoptera frugiperda; test: Insecticidal activity against Spodoptera frugiperda (fall armyworm) assessed as mortality at 15 ug/ml in artificial diet measured after 7 days (reference value: 8.33%); settings: 168 h

With CC(=O)O[C@@H]1C[C@H]2C(C)(C)C(=O)C=C[C@]2(C)[C@H]2CC[C@@]3(C)[C@H](c4ccoc4)OC(=O)[C@H]4O[C@]43[C@@]21C [GEDUNIN] the Activity [1] was 0.5 cm, the mortality at 25 µg/mL [2] was 38.3% and the Time [3] was 23 days. The Activity [4] was 4.17%, the Activity [5] was 2.6 mm and the Activity [6] was 6.12 mg. It also gave an Activity [7] of 2.2 mg, an Activity [8] of 2.9 mm and an Activity [9] of 2.3 mg. It also gave a Time [10] of 24 days, an Activity [11] of 16.7% and a Time [12] of 36 days. For the same molecule, the Activity [13] was 20.8%, the Activity [14] was 16.12 mg and the Activity [15] was 4.9 mg. The Activity [16] was 16.7%, the Activity [17] was 1.9 mg and the Activity [18] was 3.4 mg. It also gave an Activity [19] of 17.9%, an Activity [20] of 2.1 mm and a Time [21] of 33 days. For the same molecule, the Activity [22] was 122.4 mg, the Activity [23] was 2.8 mg and the LC50 [24] was 39 µg/mL (≈ 80.8 µM). It also gave an Activity [25] of 2.1 mm, an Activity [26] of 147.9 mg and a mortality at 39 µg/mL [27] of 48.3%. The Activity [28] was 4.95 mg, the Activity [29] was 3.45 mg and the mortality at 5 µg/mL [30] was 25%. The Activity [31] was 3.6 mg, the Activity [32] was 2 mm and the Activity [33] was 2.6 mm. For the same molecule, the Time [34] was 22 days, the mortality at 10 µg/mL [35] was 33.3% and the Activity [36] was 0.3 cm. For the same molecule, the Activity [37] was 52 mg, the Time [38] was 35 days and the Activity [39] was 0.2 cm. For the same molecule, the Activity [40] was 0.25 cm, the Activity [41] was 4.17% and the Activity [42] was 0.35 cm. It also gave an Activity [43] of 0.4 cm, a mortality at 52 µg/mL [44] of 70.8% and an Activity [45] of 3.61 mg. For the same molecule, the mortality at 15 µg/mL [46] was 33.3%.
